Test results taken from patent publication US8268988B2, “Process for preparing an A2A-adenosine receptor agonist and its polymorphs” (Gilead Sciences, Inc., priority 2006, dated 2012).

What was measured:
[1] = stability of the polymorphs (relative humidity stress, moisture sorption/desorption, thermal analyses); format: physicochemical; conditions: for stability relative to the other polymorphs: ambient temperatures; for stability relative to the other polymorphs / stability under relative humidity stress conditions: monohydrate; for stability under relative humidity stress conditions: up to melting point
Method: Thermogravimetric (TG) analyses were carried out on a TA Instruments 2050 or 2950 thermogravimetric analyzer. The calibration standards were nickel and Alumel™. Samples were placed in an aluminum sample pan, inserted into the TG furnace, and accurately weighed. The samples were heated in nitrogen at a rate of 10° C./min to either 300 or 350° C. Unless stated otherwise, sample weights were equilibrated at 25° C. in the TGA furnace prior to analysis.
Differential scanning calorimetry (DSC) analyses were carried out on a TA Instruments differential scanning calorimeter 2920. Accurately weighed samples were placed in either crimped pans or hermetically sealed pans that contained a pinhole to allow for pressure release. Each sample was heated under nitrogen at a rate of 10° C./min to either 300 or 350° C. Indium metal was used as the calibration standard. Temperatures were reported at the transition maxima.
Moisture sorption/desorption data were collected on a VTI SGA-100 Vapor Sorption Analyzer. Sorption and desorption data were collected over a range of 5% to 95% relative humidity […] at 10% RH intervals under a nitrogen purge. Sodium chloride (NaCl) and polyvinylpyrrolidone (PVP) were used as the calibration standards. Equilibrium criteria used for analysis were less than 0.0100% weight change in 5 minutes, with a maximum equilibration time of 180 minutes if the weight criterion was not met. The plotted data have not been corrected for the initial moisture content.

A2A-adenosine receptor = A2A-adenosine receptor (Homo sapiens, UniProt P29274); conditions: result in words; cited from earlier work
A2A-adenosine receptor, sequence (P29274 whole entry): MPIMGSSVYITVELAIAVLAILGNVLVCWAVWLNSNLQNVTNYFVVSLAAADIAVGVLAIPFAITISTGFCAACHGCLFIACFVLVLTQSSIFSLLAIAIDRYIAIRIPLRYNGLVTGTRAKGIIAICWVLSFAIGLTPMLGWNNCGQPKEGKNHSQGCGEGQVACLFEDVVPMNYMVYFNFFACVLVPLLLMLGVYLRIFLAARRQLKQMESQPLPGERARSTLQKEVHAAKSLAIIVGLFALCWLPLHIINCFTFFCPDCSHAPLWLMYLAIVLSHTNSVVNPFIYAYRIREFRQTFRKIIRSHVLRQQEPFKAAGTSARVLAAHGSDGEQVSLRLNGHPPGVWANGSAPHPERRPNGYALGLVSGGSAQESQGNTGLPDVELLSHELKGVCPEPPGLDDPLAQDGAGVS

[2] = cited from earlier work

With `CNC(=O)c1cnn(-c2nc(N)c3ncn([C@@H]4O[C@H](CO)[C@@H](O)[C@H]4O)c3n2)c1` [Amorphous Material, (1-{9-[(4S,2R,3R,5R)-3,4-dihydroxy-5-(hydroxymethyl)oxolan-2-yl]-6-aminopurin-2-yl}pyrazol-4-yl)-N-methylcarboxamide] the “stability in the presence of atmospheric moisture” value ([1]; atmospheric moisture) was “unstable in the presence of atmospheric moisture, forming variable hydrates”.

With `CNC(=O)c1cnn(-c2nc(N)c3ncn([C@@H]4O[C@H](CO)[C@@H](O)[C@H]4O)c3n2)c1.O` [Form A, (1-{9-[(4S,2R,3R,5R)-3,4-dihydroxy-5-(hydroxymethyl)oxolan-2-yl]-6-aminopurin-2-yl}pyrazol-4-yl)-N-methylcarboxamide monohydrate] the “stability relative to the other polymorphs” value ([1]; listed as monohydrate) was “the most stable”, the “stability relative to the other polymorphs” value [1] was “the most stable of the various polymorphs at ambient temperatures” and the “stability under relative humidity stress conditions” value ([1]; listed as monohydrate) was “stable under relative humidity stress conditions, up to its melting point”. The “stability under relative humidity stress conditions” value [1] was “stable under relative humidity stress conditions up to its melting point”.

For `CNC(=O)c1cnn(-c2nc(N)c3ncn([C@@H]4O[C@H](CO)[C@@H](O)[C@H]4O)c3n2)c1` [Polymorph C, (1-{9-[(4S,2R,3R,5R)-3,4-dihydroxy-5-(hydroxymethyl)oxolan-2-yl]-6-aminopurin-2-yl}pyrazol-4-yl)-N-methylcarboxamide], the “behaviour at elevated temperatures” value ([1]; elevated temperatures) was “desolvates to an unstable form”.

For `CNC(=O)c1cnn(-c2nc(N)c3ncn([C@@H]4O[C@H](CO)[C@@H](O)[C@H]4O)c3n2)c1` [(1-{9-[(4S,2R,3R,5R)-3,4-dihydroxy-5-(hydroxymethyl)oxolan-2-yl]-6-aminopurin-2-yl}pyrazol-4-yl)-N-methylcarboxamide], the “A2A-adenosine receptor agonist selectivity” value (A2A-adenosine receptor) is given as “highly selective A2A-adenosine receptor agonist”.

In the case of `Nc1ncnc2c1ncn2[C@@H]1O[C@H](CO)[C@@H](O)[C@H]1O` [Adenosine], the “half life in humans” value [2] is listed as “less than 10 seconds”.
